Values quoted from earlier work, collected in paper PMC11376147 (Chemical Science, 2024).

Biological target: T1, DC-SIGN ECD (Homo sapiens, UniProt Q9NNX6)
T1 sequence (Q9NNX6 66-404): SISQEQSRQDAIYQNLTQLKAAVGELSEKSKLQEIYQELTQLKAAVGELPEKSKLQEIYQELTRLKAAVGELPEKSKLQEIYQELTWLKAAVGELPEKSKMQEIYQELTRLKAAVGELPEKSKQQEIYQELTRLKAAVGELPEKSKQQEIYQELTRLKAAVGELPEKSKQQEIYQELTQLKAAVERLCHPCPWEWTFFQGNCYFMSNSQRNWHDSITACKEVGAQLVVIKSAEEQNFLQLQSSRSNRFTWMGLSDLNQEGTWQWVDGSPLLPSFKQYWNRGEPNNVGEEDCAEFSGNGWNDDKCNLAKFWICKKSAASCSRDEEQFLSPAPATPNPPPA
Conditions: read-out: IC50 DC-SIGN; SPR inhibition, Spike surface; cited from earlier work

For `OC[C@H]1OC(O)[C@@H](O)[C@@H](O)[C@@H]1O` (stereo partly shown) [mannose], the IC50 is given as 3 mM.
